# Test results: patent US7129213B2, “Tripeptides and tripeptide derivatives for the treatment of neurodegenerative diseases” (Neurotell AG, priority 2002, dated 2006)
# Counter-ions that a name gives are not always drawn. Where a SMILES comes first, the peptide text is derived from it.
# Columns and labels:
# [1] = system: rats previously treated by vincristine; assay: Vincristine model, sound avoidance conditioning (pole climbing test); assay type: in vivo, rat
# Method: The rats were slightly anesthetized by ether, an incision was made into the skin of the skull, and the skull was pierced by means of a dental burr. A metal needle was stereotaxically directed to the lateral ventricle, and then fixed by means of dental cement. Every day of the experiment, the patency of the needle was controlled.
# Three days after introducing the needle (recovery from the postoperative shock) the non-anesthetized animals were injected 5 μl of normal saline with vincristine in a dose of 5 μg/kg/day. […] This administration was repeated every day for a period of five days.
# Three days after the last administration of vincristine, the animals were chloralized (360 mg/kg), and, starting at the external carotid artery, a permanent floating catheter was retrogradely introduced into a common carotid artery. This catheter left again on the top of the skull, and was fixed by means of dental cement. After two days the animals had recovered from the postoperative shock. […] The steady state was reached on Day 3 after the last administration, and the model was stable for a period of several months. Once this lapse of time passed, a second type of degeneration was observed that affects the white matter, and was certainly due to apoptosis phenomena).
# Five days after the last administration of vincristine, the twenty rats were randomly divided into two groups of 10 animals each: • one group of 10 rats received an intracarotid injection of 1 ml/kg/day of normal saline (controls) for a period of 10 days. • one group of 10 rats received 20 mg/kg/day of HCl-Gly-Phe-ProNH2 dissolved in normal saline for a period of 10 days. The injections were given at 9.00 a.m.
# (§1) During the last five days of treatment, the rats were placed under the common learning conditions of the three models between 10.00 a.m. and 11.00 a.m. (see below).
# (§2) During the last five days of treatment, at 10.00 a.m. (1 hour after the administration of HCl-Gly-Phe-ProNH2), the animals were placed into a learning cage for sound avoidance conditioning (Conditioning avoidance response). The animals learned to climb a pole first to escape from and then to avoid an electric shock. This method was standardized and quantified in our laboratory (see Le Poncin M., Lafitte J. C., Rapin J. R., Sound Avoidance Conditioning and a Mathematical approach to the description of acquisition performance, Math. Biosciences 59 (1982) 242–268).
# (§3) For a period of five days, the animals were placed everyday under these learning conditions for a total of ten tests a day. Results are expressed as percentage of adequate responses, and the kinetics of the responses is represented by a multi-exponential maximum curve.
# (§4) The curve maximum represents the learning capacities. The slope of the curve evaluates the learning speed. The area under the curve (AUC) represents a good evaluation of all conditioning parameters. The maximum value of the area under the curve is 500, if the animals show 100% adequate responses as early as Day 0. In fact, an average area under the curve is calculated per day, what amounts to a maximum value of 100. In the absolute control animals, this average area under the curve is equal to 40+/−4.
# [2] = system: rats pretreated with orally administered dexamethasone; assay: Dexamethasone model, sound avoidance conditioning; assay type: in vivo, rat
# Method: (§5) 20 rats were orally administered 50 mg/kg/day of dexamethasone over a period of 21 days. At Day 19, the animals were chloralized (360 mg/kg), and a catheter was placed into the carotid artery as described above. At Day 21, the animals were randomly divided into two groups: • one group of 10 rats received an intracarotid injection of 1 ml/kg/day of normal saline for a period of 10 days (controls). • one group of 10 rats received 20 mg/kg/day of HCl-Gly-Phe-PrONH2 dissolved in normal saline for a period of 10 days. The injections were given at 9.00 a.m.
# as §1, §2, §3, §4
# [3] = system: type II glucocorticoid receptors in the hippocampus; assay: Dexamethasone model, determination of the corticoid receptors; assay type: in vivo, rat; conditions: rats pretreated by dexamethasone, 20 mg/kg/day 10 days
# Method: as §5
# After the last learning session at 11.00 a.m., the rats were sacrificed by means of decapitation, and the hippocampi were quickly removed and put on a plate cooled to 0° C. The number of glucocorticoid receptors was determined by a binding method using a labeled corticoid and a specific inhibitor to the binding of the corticoid to the receptor (here a total agonist). The protein content was measured by Lowry's method.
# The hippocampi of each rat were homogenized in 2 ml of sodium EDTA Glycerol molybdate buffer. […] An aliquot of the supernatant was diluted in distilled water, and the protein content was measured by Lowry's method. […]
# After one night of incubation at 4° C., charcoal/dextran was added to absorb […] dexamethasone. After centrifugation, the radioactivity of the supernatant was measured by liquid scintillation. […]
# [4] = PAMPA
# Description: The Parallel Artificial Membrane Permeation Assay system (PAMPA) is a simple and fast method for the prediction of gastrointestinal drug absorption. Drug permeation of biological cell layers is mainly related to passive diffusion processes. The PAMPA method measures the permeation of potential new drugs across an artificial membrane by passive diffusion and allows a classification into low, medium and high absorbers.
# The artificial membrane was built up by pipetting a solution of lecithine in organic solvent on a supporting filter material in 96-well plates. For all test compounds, stock solutions of 5 mM were prepared in ethanol. They were then diluted in Tris-buffer (0.05 M, pH 7,4) to a final concentration of 500 μM. Permeation rates of all test compounds were measured in triplicate or quadruplicate. Diffusion time across the artificial membrane was 16 h. For all compounds reference values without phospholipid layer were individually determined. Concentrations in the acceptor compartments were measured by UV difference spectroscopy using a microtiter plate reader Spectramax Plus^384 from Molecular Devices. For each compound the λmax values were determined in a previous run and measurements were performed at this wavelength. The permeation rates are expressed as flux rates, which are calculated according to the following formula: flux (%)=OD (test well)/OD (control well)×100. […] Lucifer Yellow, a non-permeating dye, has been applied to each well postexperimentally and the concentration of the marker measured in a Wallac Victor^2 1420 Multilabel Counter. Wells, in which the concentration of Lucifer Yellow exceeded 1% of the amount detected in the control wells (without artificial membrane) were discarded.
smiles,measurement,setting,value
"NCC(=O)N[C@@H](Cc1ccccc1)C(=O)N1CCC[C@H]1C(N)=O [HCl-Gly-Phe-ProNH2, glycyl-L-phenylalanyl-L-prolineamide] (H-Gly-Phe-Pro-NH2)",percentage of adequate responses D0,"[1]; vincristine 5 μg/kg/day ICV 5 days, 20 mg/kg/day intracarotid 10 days, learning day D0",0%
same,AUC (average area under the learning curve per day),"[1]; vincristine model, 20 mg/kg/day 10 days",**24.8 +/− 3.2
same,percentage of adequate responses D1,"[1]; vincristine model, 20 mg/kg/day 10 days, learning day D1",5 +/− 2%
same,percentage of adequate responses D2,"[1]; vincristine model, 20 mg/kg/day 10 days, learning day D2",**20 +/− 4%
same,percentage of adequate responses D3,"[1]; vincristine model, 20 mg/kg/day 10 days, learning day D3",**40 +/− 5%
same,percentage of adequate responses D4,"[1]; vincristine model, 20 mg/kg/day 10 days, learning day D4",**59 +/− 6%
same,effect on learning parameters,"[1]; vincristine model, intracarotid injection treatment",partly restores the learning parameters
same,percentage of adequate responses D0,"[2]; dexamethasone 50 mg/kg/day oral 21 days, 20 mg/kg/day 10 days, learning day D0",0%
same,effect on learning capacities,[2]; dexamethasone model,partially restores the learning capacities
same,AUC (average area under the learning curve per day),"[2]; dexamethasone model, 20 mg/kg/day 10 days",**35.0 +/− 3.1
same,percentage of adequate responses D1,"[2]; dexamethasone model, 20 mg/kg/day 10 days, learning day D1",7 +/− 2%
same,percentage of adequate responses D2,"[2]; dexamethasone model, 20 mg/kg/day 10 days, learning day D2",**29 +/− 5%
same,percentage of adequate responses D3,"[2]; dexamethasone model, 20 mg/kg/day 10 days, learning day D3",**57 +/− 4%
same,percentage of adequate responses D4,"[2]; dexamethasone model, 20 mg/kg/day 10 days, learning day D4",**75 +/− 3%
same,type II glucocorticoid receptors in the hippocampus,[3],**73 +/− 4 femtomols/mg of proteins
same,type II glucocorticoid receptors in the hippocampus,[3]; listed as HCL-GLY-PHE-PRONH2,reduces the down regulation of the glucocorticoid receptors
same,"PAMPA classification, predicted absorption after peroral application",[4],weakly absorbed
